In ChEMBL document CHEMBL4330081, “Rational design of 5-((1H-imidazol-1-yl)methyl)quinolin-8-ol derivatives as novel bromodomain-containing protein 4 inhibitors” (Eur J Med Chem, 2019):
Calls of active or inactive are those of the source. The calls are words filed in the database; no cut-off is given here.

Key:
MM1.S = experiment: Antiproliferative activity against human MM1S cells after 72 hrs by CellTiter Glo luminescent assay; format: functional, cell-based
hERG (KCNH2) = hERG (KCNH2) (Homo sapiens, UniProt Q12809); experiment: in vitro; conditions: CHO cells expressing human ERG
Description: Inhibition of human ERG expressed in CHO cells at 40 uM at -80 mV holding potential after 2.5 mins by Qpatch clamp assay relative to control

[1] = molecular target: T1, Bromodomain-containing protein 4 (Homo sapiens, UniProt O60885); experiment: Inhibition of BRD4 BD1 (unknown origin) using biotin labelled NeC: SGRG-K(Ac)-GG-K(Ac)-GLG-K(Ac)-GGA-K(Ac)-RHRKVGG-K as substrate preincubated for 15 mins followed by substrate addition measured after 30 mins by alpha screen assay
[2] = Half life in human hepatocytes at 1 uM up to 120 mins by LC/MS analysis; format: ADME, cell-based, Hepatocyte
[3] = molecular target: T1, Bromodomain-containing protein 4
Description: Stabilization of BRD4 BD1 (unknown origin) assessed as change in melting temperature at protein to test compound molar ratio of 1:40 by SYPRO Orange dye based fluorescence analysis

MV4-11 = experiment: Antiproliferative activity against human MV4-11 cells after 72 hrs by CellTiter Glo luminescent assay; format: functional, cell-based; conditions: MV4-11, 72 h
MDA-MB-231 = experiment: Antiproliferative activity against human MDA-MB-231 cells after 72 hrs by CellTiter Glo luminescent assay; format: functional, cell-based; conditions: MDA-MB-231, 72 h
[4] = molecular target: T1, Bromodomain-containing protein 4; experiment: Inhibition of BRD4 in human MV4-11 cells assessed as down regulation of c-myc after 6 hrs by Western blot analysis; format: cell-based
[5] = molecular target: T1, Bromodomain-containing protein 4; experiment: Inhibition of BRD4 in human MM1S cells assessed as down regulation of c-myc after 6 hrs by Western blot analysis; format: cell-based
[6] = molecular target: T1, Bromodomain-containing protein 4; experiment: Inhibition of BRD4 BD1 (unknown origin) at 10 uM using biotin labelled NeC: SGRG-K(Ac)-GG-K(Ac)-GLG-K(Ac)-GGA-K(Ac)-RHRKVGG-K as substrate preincubated for 15 mins followed by substrate addition measured after 30 mins by alpha screen assay relative to control
[7] = molecular target: T1, Bromodomain-containing protein 4; experiment: Inhibition of BRD4 BD1 (unknown origin) at 50 uM using biotin labelled NeC: SGRG-K(Ac)-GG-K(Ac)-GLG-K(Ac)-GGA-K(Ac)-RHRKVGG-K as substrate preincubated for 15 mins followed by substrate addition measured after 30 mins by alpha screen assay relative to control
[8] = molecular target: T1, Bromodomain-containing protein 4; experiment: Inhibition of BRD4 in human MDA-MB-231 cells assessed as down regulation of c-myc at 3.125 to 50 uM after 6 hrs by Western blot analysis; format: cell-based
[9] = molecular target: T1, Bromodomain-containing protein 4; experiment: Inhibition of BRD4 in human MV4-11 cells assessed as down regulation of c-myc at 3.125 to 50 uM after 6 hrs by Western blot analysis; format: cell-based
[10] = molecular target: T1, Bromodomain-containing protein 4; experiment: Inhibition of recombinant full length human N-terminal His6-tagged BRD4 (2 to 1362 residues) expressed in baculovirus infected insect cells using histone H4 peptide as substrate by alpha screen assay
[11] = molecular target: T1, Bromodomain-containing protein 4; experiment: Stabilization of BRD4 BD1 (unknown origin) assessed as change in melting temperature at protein to test compound molar ratio of 1:10 by SYPRO Orange dye based fluorescence analysis
[12] = molecular target: T1, Bromodomain-containing protein 4; experiment: Stabilization of BRD4 BD1 (unknown origin) assessed as change in melting temperature at protein to test compound molar ratio of 1:20 by SYPRO Orange dye based fluorescence analysis
[13] = molecular target: T1, Bromodomain-containing protein 4; experiment: Stabilization of BRD4 BD1 (unknown origin) assessed as change in melting temperature at protein to test compound molar ratio of 1:80 by SYPRO Orange dye based fluorescence analysis

Chain of hERG (KCNH2) (Q12809 whole entry): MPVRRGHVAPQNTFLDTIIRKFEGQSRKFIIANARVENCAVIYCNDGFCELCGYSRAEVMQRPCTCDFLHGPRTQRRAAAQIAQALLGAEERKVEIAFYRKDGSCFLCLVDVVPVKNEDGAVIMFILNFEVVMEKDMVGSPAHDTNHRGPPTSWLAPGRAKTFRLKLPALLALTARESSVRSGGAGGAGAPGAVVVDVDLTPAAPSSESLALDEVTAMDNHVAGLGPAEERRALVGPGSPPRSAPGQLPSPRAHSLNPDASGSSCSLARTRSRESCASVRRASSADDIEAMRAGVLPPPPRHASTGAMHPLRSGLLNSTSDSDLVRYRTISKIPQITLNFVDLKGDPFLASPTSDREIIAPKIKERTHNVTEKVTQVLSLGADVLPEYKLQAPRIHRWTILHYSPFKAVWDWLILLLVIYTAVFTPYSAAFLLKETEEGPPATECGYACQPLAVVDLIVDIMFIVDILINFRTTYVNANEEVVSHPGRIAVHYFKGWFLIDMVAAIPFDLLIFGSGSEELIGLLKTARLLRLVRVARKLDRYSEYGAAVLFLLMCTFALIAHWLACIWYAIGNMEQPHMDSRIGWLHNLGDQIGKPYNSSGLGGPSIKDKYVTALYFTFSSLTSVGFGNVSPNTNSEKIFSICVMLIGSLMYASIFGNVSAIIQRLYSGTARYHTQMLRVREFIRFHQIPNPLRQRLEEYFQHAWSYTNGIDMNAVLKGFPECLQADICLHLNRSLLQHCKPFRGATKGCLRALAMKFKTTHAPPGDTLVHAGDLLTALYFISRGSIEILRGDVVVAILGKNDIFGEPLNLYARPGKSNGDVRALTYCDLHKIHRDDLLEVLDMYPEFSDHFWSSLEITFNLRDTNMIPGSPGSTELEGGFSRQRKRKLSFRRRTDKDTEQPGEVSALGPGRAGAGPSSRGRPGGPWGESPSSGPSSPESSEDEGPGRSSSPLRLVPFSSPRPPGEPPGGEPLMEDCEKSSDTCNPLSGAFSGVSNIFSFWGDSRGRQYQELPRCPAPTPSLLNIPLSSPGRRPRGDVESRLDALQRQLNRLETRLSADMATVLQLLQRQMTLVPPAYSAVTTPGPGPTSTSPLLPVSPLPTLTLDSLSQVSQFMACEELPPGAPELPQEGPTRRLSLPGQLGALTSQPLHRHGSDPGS

Oc1ccc(Cn2cnc3ccccc32)c2cccnc12
IC50 (MM1.S): 3000 nM | inhibition at 2.5 min, 40 µM (hERG (KCNH2)): 33% | IC50 [1]: 337 nM | half-life at 1 µM [2]: 31 min | ΔTm [3]: 3.1 °C | IC50 (MV4-11): 1000 nM | IC50 (MDA-MB-231): 4700 nM | inhibition [4]: Dose-dependent effect | inhibition [5]: Dose-dependent effect

O=[N+]([O-])c1cc([N+](=O)[O-])c2cccnc2c1O
inhibition [6]: 27%

Oc1cccc2ccc(/C=C/c3ccc(-c4cccc(Br)c4)o3)nc12
inhibition [7]: < 7.8%

COC(=O)C(O)(c1cc(C)c2cccnc2c1O)C(F)(F)F (stereo not drawn)
inhibition [7]: 97%

Cc1cc(C)c2ccc(C=O)nc2c1O
inhibition [6]: -0%

Cc1cc2ncn(Cc3ccc(O)c4ncccc34)c2cc1C
inhibition [6]: 23%

O=[N+]([O-])c1ccc2c(c1)ncn2Cc1ccc(O)c2ncccc12
IC50 (MM1.S): 10900 nM | IC50 [1]: 107 nM | half-life at 1 µM [2]: 27 min | ΔTm [3]: 4 °C | IC50 (MV4-11): 1000 nM | inhibition [8]: inactive | IC50 (MDA-MB-231): 1100 nM | inhibition [9]: Active

O=c1oc2ccc(Cl)cc2n1Cc1ccc(O)c2ncccc12
inhibition [6]: 16%

O=C(CCc1ccccc1)N/N=C/c1ccc(O)c2ncccc12
IC50 [1]: 4300 nM | inhibition [6]: 86%

O=[N+]([O-])c1cccc(-c2ccc(/C=C/c3ccc4cccc(O)c4n3)o2)c1
inhibition [7]: -0%

O=C(C[n+]1cccc2cccc(O)c21)c1ccc(Cl)cc1
inhibition [7]: -0%

O=C(Cc1ccccc1)N/N=C/c1ccc(O)c2ncccc12
IC50 [1]: 4700 nM | inhibition [6]: 82%

Oc1ccc(Cn2cncn2)c2cccnc12
IC50 (MM1.S): 4300 nM | IC50 [1]: 95 nM | ΔTm [3]: 3.2 °C | IC50 (MV4-11): 5200 nM | IC50 (MDA-MB-231): 6700 nM

Cc1ccc(C(=O)C[n+]2cccc3cccc(O)c32)cc1
inhibition [7]: -0%

Oc1ccc(CNc2ccccc2Br)c2cccnc12
inhibition [7]: 46%

Cc1sc2c(c1C)C(c1ccccc1)=N[C@@H](CC(=O)OC(C)(C)C)c1nnc(C)n1-2
IC50 [10]: 33 nM

Oc1ccc(COn2nnc3ccccc32)c2cccnc12
IC50 [1]: 82 nM | ΔTm [3]: 4.4 °C | IC50 (MV4-11): 12700 nM

CC1=NN(c2ccc3cccc(O)c3n2)C(=O)C1
IC50 [1]: 1000 nM | inhibition [6]: 99%

Nc1ccc2c(Cn3ccnc3)ccc(O)c2n1
IC50 [1]: 292 nM | ΔTm [3]: 3.8 °C | IC50 (MV4-11): 20400 nM

O=C(C[n+]1cccc2cccc(O)c21)c1ccccc1
inhibition [7]: -0%

C=CC[n+]1cccc2cccc(O)c21
inhibition [7]: -0%

Oc1ccc(CNc2ccc(Cl)cn2)c2cccnc12
inhibition [6]: 12%

Oc1cccc2ccc(/C=C/c3cccc(OCc4ccccc4Cl)c3)nc12
inhibition [7]: -0%

O=S(=O)(O)c1ccc2cccc(O)c2n1
inhibition [7]: 47.4%

Oc1ccc(Cn2ccnc2)c2cccnc12
ΔTm [11]: 1.8 °C | ΔTm [12]: 2.8 °C | inhibition at 2.5 min, 40 µM (hERG (KCNH2)): 10% | IC50 [1]: 101 nM | half-life at 1 µM [2]: 21 min | ΔTm [3]: 3.9 °C | IC50 (MV4-11): 27000 nM | ΔTm [13]: 5 °C

Cn1c(/N=N/c2ccc(O)c3ncccc23)nc2ccccc21
IC50 [1]: 370 nM | inhibition [6]: 100%

Oc1ccc(CN2CCCCCC2)c2cccnc12
IC50 [1]: 670 nM | inhibition [7]: 46 to 99%

O=C(Oc1ccc(Cn2ccnc2)c2cccnc12)c1ccccc1
IC50 (MM1.S): 2900 nM | IC50 [1]: 67 nM | half-life at 1 µM [2]: 1.4 min | ΔTm [3]: 3.8 °C | IC50 (MV4-11): 9000 nM | IC50 (MDA-MB-231): 12300 nM

Cc1ccc2c(Cn3ccnc3)ccc(O)c2n1
inhibition [6]: 41%

O=C1c2ccccc2C(=O)N1Cc1ccc(O)c2ncccc12
inhibition [6]: 30%

Nc1ccc(-c2nc3ccc(-c4nc5ccc(N)cc5[nH]4)cc3[nH]2)cc1
inhibition [6]: -0%

O=C(C[n+]1cccc2cccc(O)c21)c1ccc(F)cc1
inhibition [7]: -0%

Oc1c(Br)cc(Br)cc1/C=C/c1ccc2cccc(O)c2n1
inhibition [7]: -0%

N=C(N)NCCC[C@H](NC(=O)CCC(=O)OC[N+]1(c2cc(=O)c3cccc(-c4ccccc4)c3o2)CCOCC1)C(=O)NCC(=O)N[C@@H](CC(=O)O)C(=O)N[C@@H](CO)C(=O)[O-] [SF-1126]
IC50 [10]: 5300 nM

CCOC(=O)C1CCCN(Cc2ccc(O)c3ncccc23)C1 (stereo not drawn)
IC50 [1]: 738 nM | inhibition [7]: 97.8%

Oc1cccc2ccc(N3CCCCC3)nc12
inhibition [6]: -0%

COc1nnc2ccc(N3CCC(c4ccc(OCCN5CCN(C)C(=O)C5C)cc4)CC3)nn12 (stereo not drawn)
IC50 [10]: 1.7 nM

Oc1ccc(CNc2cccc(C(F)(F)F)c2)c2cccnc12
IC50 [1]: 4800 nM | inhibition [6]: 84%

CC(=O)Oc1ccc(Cn2ccnc2)c2cccnc12
IC50 [1]: 61 nM | ΔTm [3]: 4.3 °C | IC50 (MV4-11): 28500 nM

Oc1ccc(Cn2cnc(F)c2)c2cccnc12
IC50 (MM1.S): 1200 nM | inhibition at 2.5 min, 40 µM (hERG (KCNH2)): 10% | IC50 [1]: 70 nM | half-life at 1 µM [2]: 23 min | ΔTm [3]: 4.6 °C | IC50 (MV4-11): 2200 nM | IC50 (MDA-MB-231): 34300 nM | inhibition [4]: Dose-dependent effect | inhibition [5]: Dose-dependent effect

O=[N+]([O-])c1ccc(O)c2ncccc12 [NITROXOLINE]
ΔTm [3]: 3.9 °C | IC50 (MV4-11): 4900 nM

Oc1ccc(Cn2nnc3ccccc32)c2cccnc12
IC50 (MM1.S): 300 nM | inhibition at 2.5 min, 40 µM (hERG (KCNH2)): 24% | IC50 [1]: 155 nM | ΔTm [3]: 4.3 °C | IC50 (MV4-11): 1000 nM | IC50 (MDA-MB-231): 1300 nM

Cc1cc(C)c2ccc(NN)nc2c1O
IC50 [1]: 18000 nM | inhibition [7]: 88%

COc1ccc(C)cc1/N=N/c1ccc(O)c2nc(/C=N/O)ccc12
inhibition [6]: 24%

Oc1ccc(CN2CCn3c(nnc3C(F)(F)F)C2)c2cccnc12
IC50 [1]: 68 nM | ΔTm [3]: 4.9 °C | IC50 (MV4-11): 22400 nM

O=C(N/N=C/c1ccc(O)c2ncccc12)c1cccc(Br)c1
IC50 [1]: 5200 nM | inhibition [6]: 73%

Oc1ccc(CSc2ccccc2)c2cccnc12
IC50 [1]: 3000 nM | inhibition [6]: 86%

COc1ccc(C)cc1/N=N/c1ccc(O)c2nc(C=O)ccc12
inhibition [6]: 20%

Oc1ccc(CSc2nc3ccccc3s2)c2cccnc12
inhibition [6]: 18%

O=S(=O)(Nc1ccc(O)c2ncccc12)c1ccc(Cl)cc1
inhibition [6]: -0%

Oc1ccc(CNc2ccc(C(F)(F)F)cc2)c2cccnc12
IC50 [1]: 4800 nM

O=S(=O)(O)c1ccc(/N=N/c2ccc(O)c3ncccc23)cc1
inhibition [6]: -0%

CC(C)(CCl)C(=O)Oc1ccc(Cn2ccnc2)c2cccnc12
IC50 (MM1.S): 3600 nM | IC50 [1]: 54 nM | ΔTm [3]: 2.4 °C | IC50 (MV4-11): 8900 nM | IC50 (MDA-MB-231): 12400 nM

O=C1c2ccccc2C(=O)N1CCCOc1ccc(Cn2ccnc2)c2cccnc12
inhibition [6]: 21%

CC(=O)Oc1ccc(Cn2cnc(F)c2)c2cccnc12
IC50 (MM1.S): 1100 nM | IC50 [1]: 70 nM | ΔTm [3]: 4.7 °C | IC50 (MV4-11): 2900 nM | IC50 (MDA-MB-231): 2200 nM

CN(C)c1ccc2cccc(O)c2n1
inhibition [6]: -0%

CC(C)(C)OC(=O)Oc1ccc(Cn2ccnc2)c2cccnc12
IC50 (MM1.S): 1800 nM | IC50 [1]: 176 nM | ΔTm [3]: 4.5 °C | IC50 (MV4-11): 11500 nM | IC50 (MDA-MB-231): 31500 nM

Oc1ccc(Cn2cccn2)c2cccnc12
IC50 (MM1.S): 700 nM | inhibition at 2.5 min, 40 µM (hERG (KCNH2)): 8.3% | IC50 [1]: 76 nM | ΔTm [3]: 4.5 °C | IC50 (MV4-11): 1600 nM | IC50 (MDA-MB-231): 3600 nM

Cc1ccc2c(Cn3cnc(F)c3)ccc(OC(=O)OC(C)(C)C)c2n1
IC50 (MM1.S): 1100 nM | IC50 [1]: 46 nM | half-life at 1 µM [2]: 1.6 min | ΔTm [3]: 4.6 °C | IC50 (MV4-11): 2900 nM | IC50 (MDA-MB-231): 2700 nM

Cc1cc(C)c2ccc(/C=N/O)nc2c1O
inhibition [6]: 6%

Cc1cc(C)n(-c2ccc3c(Cl)cc(Cl)c(O)c3n2)n1
inhibition [6]: -0%

Cc1cc(O)c2cccc(O)c2n1
inhibition [7]: -0%

Cc1nnn(C)c1-c1cnc2c3ccc(C(C)(C)O)cc3n(C(c3ccccc3)C3CCOCC3)c2c1 (stereo not drawn)
IC50 [10]: < 5 nM

Nc1cc(S(=O)(=O)O)c2cccnc2c1O
inhibition [6]: -0%

O=C1CN(Cc2ccc(O)c3ncccc23)Cc2ncccc2N1
IC50 [1]: 92 nM | ΔTm [3]: 4.3 °C | IC50 (MV4-11): 9600 nM

CCOc1c(Br)cc(Br)cc1/C=C/c1ccc2cccc(O)c2n1
inhibition [7]: -0%

Oc1c(Br)cc(/C=C/c2ccc3cccc(O)c3n2)cc1Br
inhibition [7]: -0%

Oc1ccc(Cn2c(-c3cscn3)nc3ccccc32)c2cccnc12
IC50 (MM1.S): 2100 nM | IC50 [1]: 73 nM | ΔTm [3]: 4.7 °C | IC50 (MV4-11): 1500 nM | IC50 (MDA-MB-231): 3700 nM

O=[N+]([O-])c1cccc(S(=O)(=O)Nc2ccc(O)c3ncccc23)c1
inhibition [6]: -0%

CCCOCc1ccc(O)c2ncccc12
IC50 [1]: 2100 nM | inhibition [6]: 96%

CC(C)(C)OC(=O)Oc1ccc(Cn2c(-c3cscn3)nc3ccccc32)c2cccnc12
inhibition [6]: 11%
